1 molecule from BindingDB's records for doi:10.1021/jm0205696 (Abbott Laboratories, 2003) can be followed below.

Structures are written as SMILES.

One may read the Ki as a measure of affinity in units of concentration, obtained from inhibition or displacement.

This test concerns the target T1, Tyrosine-protein phosphatase non-receptor type 2 (Homo sapiens, UniProt P17706).
T1 sequence (P17706 whole entry): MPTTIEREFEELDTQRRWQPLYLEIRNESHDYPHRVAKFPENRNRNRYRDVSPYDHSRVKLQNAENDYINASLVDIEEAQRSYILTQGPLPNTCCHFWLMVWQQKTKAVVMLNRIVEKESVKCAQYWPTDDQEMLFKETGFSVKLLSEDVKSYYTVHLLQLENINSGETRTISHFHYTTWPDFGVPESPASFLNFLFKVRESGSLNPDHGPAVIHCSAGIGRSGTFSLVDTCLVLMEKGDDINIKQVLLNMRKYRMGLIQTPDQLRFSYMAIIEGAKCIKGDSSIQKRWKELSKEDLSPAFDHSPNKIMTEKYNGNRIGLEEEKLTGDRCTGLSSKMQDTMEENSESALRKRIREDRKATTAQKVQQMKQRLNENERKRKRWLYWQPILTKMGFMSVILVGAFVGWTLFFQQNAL
The experiment in a line: PTP1B and TCPTP Inhibition Assay.

Method: For each concentration of test compound or DMSO control, the initial rates were used to fit the rectangular hyperbola of Michaelis-Menten by nonlinear regression analysis. The ratio of the apparent Km/Vmax vs inhibitor concentration was plotted, and the Ki was calculated by linear regression to be the negative X-intercept.

For `CCCCCNC(=O)[C@H](Cc1ccc(N(C(=O)C(=O)O)c2ccccc2C(=O)O)c(/C=C/C(N)=O)c1)NS(C)(=O)=O` [2-{[2-(2-Carbamoylvinyl)-4-(2-(S)-methanesulfonylamino 2-pentylcarbamoylethyl)phenyl]oxalylamino}-benzoic Acid], the Ki was 160 nM.
